Like-named read-outs stand apart in the source and are kept apart here.

The results in this text go back to US11897862B2 (Gilead Sciences, Inc., priority 2022, dated 2024).

What all share (assay type): cell-based
Experiment [1] concerns the target T1, IKZF2 (Homo sapiens, UniProt Q96SW2+Q9UKS7). In words: HEK293 IKZF2 degradation kinetics (HiBiT, timepoints 1-24 h). Set-up: expressed in transfected cells. The conditions noted are these: for kinact: HEK293, IKZF2, timepoints 1, 2, 3, 4.5 and 24 hour, read-out: Maximum degradation rate Kinact (converted). As to the method: The assay technology and principles for evaluating IKZF2 degradation kinetics in HEK293 cells was identical to the HEK293 degradation assay as described above. Additional details are briefly described below.
On Day 1, Cells were grown and induced the same as described above. On Days 2 and 3, compounds for testing were dispensed via ECHO and cells were lifted and plated into compound-spotted assay plates as above. Plates were returned to the 37° C. incubator until addition of Nano-Glo lytic reagent at 1, 2, 3, 4.5, and 24 hour timepoints. At these timepoints, plates were read on Envision reader as above.
All raw data was normalized to DMSO control (final concentration: 0.5%) wells as POC and plotted out as a function of time to generate the degradation rate constant (K) value. The maximum degradation rate (Kinact) was determined by plotting the K value as a function of concentration for each compound tested. Kinact values are shown in Table 25 and the degradation rate plots as well as timecourse of degradation are shown for select compounds in FIG. 1A, FIG. 1B, FIG. 2A and FIG. 2B.
In general terms: HiBiT is a short tag that completes a luciferase, so light tracks the accessible tagged protein.
Target sequence in this assay (Q9UKS7 1-500 isoform Q9UKS7-2): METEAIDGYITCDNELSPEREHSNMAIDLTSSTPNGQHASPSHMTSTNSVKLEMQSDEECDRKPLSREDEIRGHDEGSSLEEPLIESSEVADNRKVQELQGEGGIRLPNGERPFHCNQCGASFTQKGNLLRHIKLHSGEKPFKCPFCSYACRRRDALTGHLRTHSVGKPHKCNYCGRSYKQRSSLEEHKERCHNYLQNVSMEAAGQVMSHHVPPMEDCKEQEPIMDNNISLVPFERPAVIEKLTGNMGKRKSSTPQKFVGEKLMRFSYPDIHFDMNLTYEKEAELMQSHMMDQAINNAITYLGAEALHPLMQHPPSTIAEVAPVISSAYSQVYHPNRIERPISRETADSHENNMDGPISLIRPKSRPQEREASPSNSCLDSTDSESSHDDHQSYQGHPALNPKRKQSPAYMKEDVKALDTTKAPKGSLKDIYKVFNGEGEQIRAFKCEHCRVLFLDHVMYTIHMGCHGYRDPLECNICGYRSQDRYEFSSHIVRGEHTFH
Target sequence in this assay (Q96SW2 whole entry): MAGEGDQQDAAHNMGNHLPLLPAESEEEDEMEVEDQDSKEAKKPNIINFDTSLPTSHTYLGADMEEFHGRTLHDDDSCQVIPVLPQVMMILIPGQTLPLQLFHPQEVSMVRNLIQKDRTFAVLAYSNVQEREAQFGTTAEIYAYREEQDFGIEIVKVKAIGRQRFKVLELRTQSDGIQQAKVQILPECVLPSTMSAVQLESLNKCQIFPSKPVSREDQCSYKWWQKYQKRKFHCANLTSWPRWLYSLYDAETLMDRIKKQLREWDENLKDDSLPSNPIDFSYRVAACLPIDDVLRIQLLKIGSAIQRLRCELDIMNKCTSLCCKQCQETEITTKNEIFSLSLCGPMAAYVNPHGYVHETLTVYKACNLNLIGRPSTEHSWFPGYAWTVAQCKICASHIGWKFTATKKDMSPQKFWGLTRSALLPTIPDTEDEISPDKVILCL
Target sequence in this assay (Q16531 whole entry partner): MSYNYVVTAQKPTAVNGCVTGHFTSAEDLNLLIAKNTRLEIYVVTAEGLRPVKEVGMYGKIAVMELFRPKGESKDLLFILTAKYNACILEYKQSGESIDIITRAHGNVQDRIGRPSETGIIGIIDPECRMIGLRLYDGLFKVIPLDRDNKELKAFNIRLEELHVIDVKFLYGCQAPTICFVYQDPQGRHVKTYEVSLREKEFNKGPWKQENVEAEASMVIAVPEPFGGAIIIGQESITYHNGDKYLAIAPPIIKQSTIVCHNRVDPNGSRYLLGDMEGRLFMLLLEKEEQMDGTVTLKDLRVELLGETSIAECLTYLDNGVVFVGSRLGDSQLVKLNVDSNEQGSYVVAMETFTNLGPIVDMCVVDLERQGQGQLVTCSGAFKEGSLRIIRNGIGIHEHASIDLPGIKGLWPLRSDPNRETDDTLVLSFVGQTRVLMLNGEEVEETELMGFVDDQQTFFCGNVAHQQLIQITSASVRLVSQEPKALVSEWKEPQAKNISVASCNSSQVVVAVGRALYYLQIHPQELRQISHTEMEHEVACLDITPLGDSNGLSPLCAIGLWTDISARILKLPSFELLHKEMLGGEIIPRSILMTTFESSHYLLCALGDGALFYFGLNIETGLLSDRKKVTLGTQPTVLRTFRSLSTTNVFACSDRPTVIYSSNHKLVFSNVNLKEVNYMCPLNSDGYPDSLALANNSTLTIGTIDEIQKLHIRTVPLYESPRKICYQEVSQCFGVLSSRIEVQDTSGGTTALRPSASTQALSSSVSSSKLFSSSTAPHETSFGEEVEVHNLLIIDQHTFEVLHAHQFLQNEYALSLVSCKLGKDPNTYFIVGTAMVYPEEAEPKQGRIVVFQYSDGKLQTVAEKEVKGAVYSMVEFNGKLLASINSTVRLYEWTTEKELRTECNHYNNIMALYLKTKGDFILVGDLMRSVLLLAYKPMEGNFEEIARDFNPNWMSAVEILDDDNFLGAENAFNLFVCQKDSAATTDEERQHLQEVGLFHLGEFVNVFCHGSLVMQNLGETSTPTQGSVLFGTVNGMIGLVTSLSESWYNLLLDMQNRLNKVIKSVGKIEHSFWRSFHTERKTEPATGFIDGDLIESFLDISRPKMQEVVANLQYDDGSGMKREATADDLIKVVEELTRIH

In experiment [2] the target is T1, IKZF2. In words: Human whole blood IKZF2 degradation (flow cytometry, CD4/CD25/Foxp3+ Treg cells). Set-up: endogenous in cells. The conditions noted are these: for Dmax / DC50: 24 hrs incubation, IKZF2 MFI in CD4/CD25/Foxp3+ Treg cells, flow cytometry; for DC50: read-out: IKZF2 EC50. Put shortly:
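Fresh healthy-donor human whole blood stimulated with CD3/CD28 activator and serially diluted compound for 24 hrs at 37° C. IKZF2 MFI in CD4/CD25/Foxp3+ Tregs (IKZF1 MFI in CD4+ T cells) measured by flow cytometry after RBC lysis, fixation, permeabilization. EC50 and Dmax versus DMSO wells.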
On the technique in general: A flow cytometer gives signals particle by particle.
Target sequence in this assay (Q9UKS7 whole entry): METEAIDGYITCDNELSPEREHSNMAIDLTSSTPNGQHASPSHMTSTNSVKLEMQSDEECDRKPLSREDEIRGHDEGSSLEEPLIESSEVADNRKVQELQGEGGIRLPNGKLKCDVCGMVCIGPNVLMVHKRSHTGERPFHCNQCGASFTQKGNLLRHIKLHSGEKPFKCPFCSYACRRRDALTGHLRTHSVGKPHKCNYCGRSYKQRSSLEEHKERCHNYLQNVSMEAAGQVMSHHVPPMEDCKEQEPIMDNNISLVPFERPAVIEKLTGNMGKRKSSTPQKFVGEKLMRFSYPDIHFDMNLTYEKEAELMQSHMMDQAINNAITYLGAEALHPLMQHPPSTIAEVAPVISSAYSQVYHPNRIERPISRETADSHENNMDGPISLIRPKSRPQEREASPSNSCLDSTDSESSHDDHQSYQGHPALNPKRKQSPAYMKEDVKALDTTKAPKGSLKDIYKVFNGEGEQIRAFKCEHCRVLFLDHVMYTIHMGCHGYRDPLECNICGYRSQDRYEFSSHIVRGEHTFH
Target sequence in this assay (Q96SW2 whole entry): as the sequence (Q96SW2 whole entry) above
Target sequence in this assay (Q16531 whole entry partner): as the sequence (Q16531 whole entry partner) above

Experiment [3] has as its target T2, IKZF1 (Homo sapiens, UniProt Q13422+Q96SW2).
T2 construct: expressed in transfected cells
In words: HEK293 HiBiT in vitro degradation of IKZF1. The conditions noted are these: for Dmax: HEK293, HEK293 HiBiT, maximum degradation at the highest concentration tested; for DC50: HEK293 HiBiT, 18-24 hr incubation, normalized to DMSO control, read-out: IKZF1 EC50. An outline of the steps:
(§1)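 Flp-In T-REx HEK293 stable pools carry a single integrated copy of C-terminal HiBiT-tagged IKZF1, IKZF2 or SALL4 under a tetracycline operator, induced overnight at 37 °C with doxycycline ([…] final). Cells were then treated with serially diluted compounds for 18-24 h. Nano-Glo lytic luminescence gave EC50 and Dmax.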

In experiment [4] the target is T1, IKZF2. In words: Jurkat IKZF2 degradation (flow cytometry). Set-up: endogenous in cells. The conditions noted are these: Jurkat cells, overnight incubation; for DC50: flow cytometry, normalized to DMSO control, read-out: IKZF2 Degradation EC50; for Dmax: maximum degradation at the highest concentration tested. The method, then:
(§2) Jurkat cell line (ATCC, Clone E6-1), highly expresses IKZF2 and lends it an appropriate system to screen degradation along with a functional readout. Jurkat cells were grown to 80% confluency in TC medium (RPMI containing glutamax, 10% FBS, 1% NEAA, and 1% Pen/Strep Glutamin in tissue culture flasks.
(§3) The cells were spun down at 400 g for 5 mins and counted. 100 K cells per well were added to a 96-well plate. The compounds were introduced starting at 10 μM and dilutions were made 1:10 for each compound. 100 μL of compound was added to each well for a 12-point titration. The cells were incubated at 37° C. with 5% CO2 overnight.
Cells were stained with appropriate surface and intracellular antibodies and acquired by flow cytometry and analysed for degradation. […]
Target sequence in this assay (Q9UKS7 whole entry): as the sequence (Q9UKS7 whole entry) above
Target sequence in this assay (Q96SW2 whole entry): as the sequence (Q96SW2 whole entry) above
Target sequence in this assay (Q16531 whole entry partner): as the sequence (Q16531 whole entry partner) above

For experiment [5], the target named is T3, SALL4 (Homo sapiens, UniProt Q96SW2+Q9UJQ4).
T3 construct: expressed in transfected cells
Briefly: HEK293 HiBiT in vitro degradation of SALL4. The conditions noted are these: 18-24 hr incubation, normalized to DMSO control, read-out: SALL4 EC50. An outline of the steps: as §1

Experiment [6] relates to IL-2 production in Jurkat cells. In words: Jurkat IL-2 functional assay (ELISA of supernatants). The conditions noted are these: Homo sapiens; for maximal fold induction: Jurkat, top of the curve fit; for EC50: overnight incubation. As to the method:
as §2, §3
The following day, supernatants were collected for a functional readout using ELISA. The supernatants were diluted 1:2 and added to appropriate Human IL-2 plates for IL-2 functional readout.
The top of the curve fit for each compound is reported as the IL-2 ‘fold increase over DMSO control.’
In general terms: In an ELISA, binding on a coated surface is turned into a signal by an enzyme label.

Experiment [7] addresses T1, IKZF2. In words: HEK293 HiBiT in vitro degradation of IKZF2. Set-up: expressed in transfected cells. The conditions noted are these: for DC50: 18-24 hr incubation, normalized to DMSO control, read-out: IKZF2 EC50; for Dmax: HEK293, HEK293 HiBiT. Put shortly: as §1
Target sequence in this assay (Q9UKS7 1-500 isoform Q9UKS7-2): as the sequence (Q9UKS7 1-500 isoform Q9UKS7-2) above
Target sequence in this assay (Q96SW2 whole entry): as the sequence (Q96SW2 whole entry) above
Target sequence in this assay (Q16531 whole entry partner): as the sequence (Q16531 whole entry partner) above
The mark [8] stands for this setting: ELISA of supernatants, read-out: IL-2 Production Fold increase over DMSO control.
[9] abbreviates: read-out: increase in IL-2 production relative to DMSO control.
Where [10] appears, read: maximum degradation at the highest concentration tested.

T2 sequence (Q13422 whole entry): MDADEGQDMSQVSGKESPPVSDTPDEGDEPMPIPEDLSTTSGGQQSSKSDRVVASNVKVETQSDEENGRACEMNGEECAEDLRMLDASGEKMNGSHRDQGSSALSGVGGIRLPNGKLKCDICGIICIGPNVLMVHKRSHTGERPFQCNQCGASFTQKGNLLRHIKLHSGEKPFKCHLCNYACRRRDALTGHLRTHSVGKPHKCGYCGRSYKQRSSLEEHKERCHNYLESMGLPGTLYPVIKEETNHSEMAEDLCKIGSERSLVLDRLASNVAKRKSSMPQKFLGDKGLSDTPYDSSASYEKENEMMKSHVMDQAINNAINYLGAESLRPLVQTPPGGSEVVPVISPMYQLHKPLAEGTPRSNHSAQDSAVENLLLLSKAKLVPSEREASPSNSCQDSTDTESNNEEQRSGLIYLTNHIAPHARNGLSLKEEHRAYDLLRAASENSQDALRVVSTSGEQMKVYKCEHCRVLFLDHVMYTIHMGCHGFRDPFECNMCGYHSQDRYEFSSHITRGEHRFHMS
T2 sequence (Q96SW2 whole entry): as the sequence (Q96SW2 whole entry) above
T2 sequence (Q16531 whole entry partner): as the sequence (Q16531 whole entry partner) above
T3 sequence (Q9UJQ4 whole entry): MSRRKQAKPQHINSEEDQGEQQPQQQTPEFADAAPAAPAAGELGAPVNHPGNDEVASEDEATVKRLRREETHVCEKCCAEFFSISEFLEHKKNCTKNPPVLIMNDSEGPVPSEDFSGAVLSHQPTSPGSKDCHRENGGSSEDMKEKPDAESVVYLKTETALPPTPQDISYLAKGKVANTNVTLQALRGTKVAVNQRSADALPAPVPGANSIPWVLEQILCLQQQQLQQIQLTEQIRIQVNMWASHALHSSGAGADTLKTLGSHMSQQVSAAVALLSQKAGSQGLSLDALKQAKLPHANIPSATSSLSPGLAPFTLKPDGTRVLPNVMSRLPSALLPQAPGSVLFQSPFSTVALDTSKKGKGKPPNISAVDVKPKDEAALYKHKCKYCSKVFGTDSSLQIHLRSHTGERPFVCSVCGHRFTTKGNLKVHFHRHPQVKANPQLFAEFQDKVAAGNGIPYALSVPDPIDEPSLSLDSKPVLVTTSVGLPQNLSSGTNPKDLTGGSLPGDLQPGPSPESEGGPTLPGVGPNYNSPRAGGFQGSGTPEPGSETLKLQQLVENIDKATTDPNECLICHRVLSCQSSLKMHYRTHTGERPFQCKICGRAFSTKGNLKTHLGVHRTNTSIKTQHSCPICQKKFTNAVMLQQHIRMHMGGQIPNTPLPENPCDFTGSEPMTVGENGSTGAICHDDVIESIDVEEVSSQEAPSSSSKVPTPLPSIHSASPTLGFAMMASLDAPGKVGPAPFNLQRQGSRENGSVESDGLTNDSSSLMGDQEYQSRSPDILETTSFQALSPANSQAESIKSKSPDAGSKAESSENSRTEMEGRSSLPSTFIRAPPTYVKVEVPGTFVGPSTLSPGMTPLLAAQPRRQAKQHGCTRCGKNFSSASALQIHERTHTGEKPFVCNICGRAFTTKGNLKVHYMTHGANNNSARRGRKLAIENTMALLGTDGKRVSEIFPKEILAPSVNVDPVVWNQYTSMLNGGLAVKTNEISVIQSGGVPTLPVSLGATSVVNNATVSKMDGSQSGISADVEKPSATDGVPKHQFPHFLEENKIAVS
T3 sequence (Q96SW2 whole entry): as the sequence (Q96SW2 whole entry) above
T3 sequence (Q16531 whole entry partner): as the sequence (Q16531 whole entry partner) above

The kinact is the rate constant of inactivation at saturating inhibitor. The Dmax is the greatest extent of degradation seen. Read a high Dmax as a fuller loss of target. As a reminder, the EC50 is the concentration at which the effect is half-maximal. Take `O=C1CCC(N2Cc3c(ccc(C[C@H]4OCCC[C@@H]4NC4CCC(C(F)F)CC4)c3F)C2=O)C(=O)N1` (single isomer, unassigned) [Example 283]: the inactivation rate constant (kinact) in experiment [1] was 9.44e-05 s⁻¹. For the same compound, the Dmax in experiment [2] worked out at 96%; in experiment [3] it was 26%; in experiment [4], 90%. Besides, the DC50 in experiment [2] is 5 nM; in experiment [3], 92 nM; in experiment [4] it was 1.4 nM; in experiment [5], greater than 10000 nM; in experiment [7] (HEK293 HiBiT) it was 4 nM. The values for the maximal fold induction in experiment [6] (setting [8]) and in experiment [6] (setting [9]) were 2.1 and no less than 1.9, respectively. The EC50 in experiment [6] (ELISA of supernatants) came out at 1.9 nM. In addition, the “IKZF2 Dmax” value in experiment [7] (HEK293 HiBiT, maximum degradation at the highest concentration tested) is recorded as 98%.

As to `CC(N[C@H]1CCCC[C@@H]1Cc1ccc2c(c1F)CN(C1CCC(=O)NC1=O)C2=O)C1CCOCC1` (single isomer, unassigned) [Example 287], the kinact in experiment [1] was 0.000189 s⁻¹. Also, the Dmax in experiment [2] was determined as 92%; in experiment [3] it was 47%; in experiment [4], 96%; in experiment [7] (setting [10]), 95%. Moreover, the DC50 is 2 nM in experiment [2]; 66 nM in experiment [3]; 0.6 nM in experiment [4]; greater than 10000 nM in experiment [5]; 1 nM in experiment [7] (HEK293 HiBiT). Moreover, the maximal fold induction in experiment [6] (setting [8]) is 2.5; in experiment [6] (setting [9]), no less than 1.9. The same compound yielded an EC50 in experiment [6] (ELISA of supernatants) of 0.6 nM.

With `O=C1CC[C@H](N2Cc3cc(C[C@H]4CCCC[C@@H]4NC4CCC(F)(F)CC4)ccc3C2=O)C(=O)N1` (single isomer, unassigned) [Example 328], in experiment [1], the kinact is 0.000175 s⁻¹. The Dmax in experiment [2] is 94%; in experiment [3], 62%; in experiment [4] it was 96%; in experiment [7] (setting [10]), 98%. The DC50 was 2 nM in experiment [2]; 22 nM in experiment [3]; 0.4 nM in experiment [4]; greater than 10000 nM in experiment [5]; 1 nM in experiment [7] (HEK293 HiBiT). Besides, the maximal fold induction was 2.7 in experiment [6] (setting [8]) and no less than 1.9 in experiment [6] (setting [9]). In addition, the response in experiment [6] (ELISA of supernatants) was half-maximal at 3.4 nM (EC50).

On to `O=C1CCC(N2Cc3cc(C[C@H]4CCCC[C@@H]4NC4CCC(F)(F)CC4)ccc3C2=O)C(=O)N1` (stereo partly drawn) [Example 46, 3-(5-(((1R,2S)-2-((4,4-difluorocyclohexyl)amino)cyclohexyl)methyl)-1-oxoisoindolin-2-yl)piperidine-2,6-dione], for which, in experiment [1] (HEK293), the “speed of IKZF2 degradation compared with Reference Compounds A-1, B-3, B-4, C-1” value is reported as “faster degradation of IKZF2”. The kinact in experiment [1] is 0.000158 s⁻¹. Besides, in experiment [2] (24 hrs), the “IKZF2 degradation potency compared with Reference Compound B-4” value is recorded as “more potent”. Further, the Dmax in experiment [2] was found to be 96%; in experiment [3], 29%; in experiment [4], 95%; in experiment [7] (setting [10]), 94%. In addition, the DC50 in experiment [2] was 3 nM; in experiment [3], 33 nM; in experiment [4], 2 nM; in experiment [5], greater than 10000 nM; in experiment [7] (HEK293 HiBiT) it was 1 nM. Moreover, the maximal fold induction in experiment [6] (setting [8]) was 2.7; in experiment [6] (setting [9]), no less than 1.9. This compound also yielded an EC50 in experiment [6] (ELISA of supernatants) of 3.5 nM.
